Results as given in patent US5804576A, “Derivatives of 5-androsten-17-ones and 5-androstan-17-ones” (Research Corporation Technologies, Inc., priority 1986, dated 1998).

Experiments:
[1] = test system: rat uterus; mouse seminal vesicle plus prostate; test: Sex steroid hormonal or anti-hormonal activity (estrogenic, anti-estrogenic, androgenic, anti-androgenic); conditions: in vivo
Description: Female CD rats, 26-27 days old, were injected subcutaneously for 3 days with one of the compounds of the present invention at 60 mg/kg in propylene glycol. Controls received propylene glycol alone. On the 4th day the rats were killed and the uteri were dissected out and weighed. The results are given below:
(§1) (a) Male A/J mice (5 weeks old) were obtained from the Jackson Laboratory and were housed in polycarbonate cages (5 mice/cage) in animal quarters maintained at 24°[…] C. with 12 hours of light and 12 hours of darkness each day. One week after arrival, the mice were placed on a chow diet containing one of the test compounds of the present invention at 0.36%. After 4 weeks of treatment, the above mice were killed, and the seminal vesicles and prostate glands were dissected out and weighed.

[2] = test system: TPA (Tumor Promoter) Stimulation of Mouse Epidermal DNA; test: Inhibition of TPA stimulation of mouse epidermal DNA synthesis (3H-thymidine incorporation), oral; type: in vivo, mouse (ICR male); conditions: oral
Text: Synthesis rate by orally administered steroids.
The inhibition of tumor promoter stimulation of mouse epidermal DNA synthesis rate by steroids may also contribute to cancer preventive activity. The following assay is used:
ICR male mice (7-9 weeks old) were shaved on the back 1-2 days before use. Only mice showing no hair regrowth were used. Animals were orally intubated with a particular steroid suspended by homogenization in sesame oil or with sesame oil alone (controls). One hour later TPA (10 μg in 0.2 ml of acetone) or acetone vehicle was applied topically to the shaved skin. Twenty hours later, mice were injected i.p. with 60 μCi of ^3 H-thymidine 20 minutes before sacrifice. The animals were killed by cervical dislocation and the residual hair was removed with a depilatory agent. Epidermal scrapings were prepared according to the procedures of Hennings et al. (Cancer Res. 28, 53, 1968), homogenized in distilled water at 4° C., and the macromolecules precipitated with 0.4N trichloroacetic acid (TCA). Following 6 washes with absolute ethanol at room temperature, the nucleic acids were hydrolyzed with 0.5N TCA at 70° C. for 5 minutes. The hydrolysate (0.2 ml aliquots) were counted in an Intertechnique scintillation counter and assayed for DNA by the diphenylamine reaction.
The data are expressed as counts per minute (cpm) of tritium per μg of DNA.
A similar oral dose-response experiment with compound 16 and DHEA was performed.
Both of the above tests, i.e., the inhibition of mammalian glucose-6-phosphate dehydrogenase (G6PDH) and the inhibition of tumor promoter (TPA) stimulation of ^3 H-thymidine incorporation in mouse epidermis are recognized as indicators of cancer prophylactic activity. The following Table compares the efficacy of representative compounds of the present invention in these two tests with that of DHEA:
Male ICR mice were orally intubated with steroid suspended in sesame oil (0.5 ml/mouse) at the indicated dose. Mice not receiving steroid were given sesame oil alone. One hour later mice received topical application of TPA and 20 hours later the rate of ^3 H-thymidine incorporation into the epidermis was determined as described in Table 4.
Male ICR mice were orally intubated with steroid suspended in sesame oil (0.5 ml/mouse) at the indicated dose. Mice not receiving steroid were given sesame oil alone. One hour later mice received topical application of TPA, and 20 hours later the rate of ^3 H-thymidine incorporation into the epidermis was determined as described in Table 4.

[3] = target: T1, purified bovine adrenal G6PDH (Bos taurus, UniProt F1MMK2); test: Inhibition of purified bovine adrenal G6PDH; type: biochemical; conditions: for inhibition at 1 µM: Conc. 1 μm; for inhibition at 1 µM / inhibition at 10 µM: read-out: Percent Inhibition (G6PDH); for inhibition at 10 µM: Conc. 10 μm
T1 construct: full-length, wild type, no tag
T1 sequence (F1MMK2 31-70): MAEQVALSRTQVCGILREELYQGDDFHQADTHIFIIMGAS
T1 sequence (F1MMK2 101-575): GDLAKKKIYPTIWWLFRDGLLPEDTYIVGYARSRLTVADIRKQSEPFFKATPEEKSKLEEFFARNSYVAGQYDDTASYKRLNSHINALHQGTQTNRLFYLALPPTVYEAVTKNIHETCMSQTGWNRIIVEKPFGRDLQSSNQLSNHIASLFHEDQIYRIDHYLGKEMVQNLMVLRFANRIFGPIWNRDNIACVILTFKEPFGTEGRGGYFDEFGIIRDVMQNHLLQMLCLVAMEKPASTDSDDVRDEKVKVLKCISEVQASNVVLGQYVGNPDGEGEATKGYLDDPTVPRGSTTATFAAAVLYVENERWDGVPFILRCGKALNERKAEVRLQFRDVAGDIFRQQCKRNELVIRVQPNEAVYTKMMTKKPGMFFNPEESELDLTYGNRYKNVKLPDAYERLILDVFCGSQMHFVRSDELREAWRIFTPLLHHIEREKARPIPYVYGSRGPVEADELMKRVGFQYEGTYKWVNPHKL
Text: The compounds listed below are screened as inhibitors of purified bovine adrenal G6PDH activity as one predictor of cancer preventive action. The assay for testing the inhibition of purified bovine adrenal G6PDH is according to the procedure by Oertel, G. W. and Rebelein, I. in Biochem. Biophys. Acta, 184, 459-460 (1969). The results are given below in Table I:
Both of the above tests, i.e., the inhibition of mammalian glucose-6-phosphate dehydrogenase (G6PDH) and the inhibition of tumor promoter (TPA) stimulation of ^3 H-thymidine incorporation in mouse epidermis are recognized as indicators of cancer prophylactic activity. The following Table compares the efficacy of representative compounds of the present invention in these two tests with that of DHEA: […]

[4] = test system: [3H]DMBA binding to skin DNA; test: [3H]DMBA binding to skin DNA, oral steroid; type: in vivo, mouse (male A/J); conditions: 12 hours
Description: Male A/J mice were orally intubated with steroid suspended in sesame oil (0.5 ml/mouse) at the indicated dose. Mice not receiving steroid were given sesame oil alone. Food restricted mice received approximately 60% of food of Ad libitum fed for two weeks. One hour after oral intubation, topical [^3 H]DMBA was applied to the skin, and the amount bound to DNA was determined 12 hours later as described in Table 4.
Male A/J mice were orally intubated with steroid suspended in sesame oil (0.5 ml/mouse) at the indicated dose. Mice not receiving steroid were given sesame oil alone. One hour after oral intubation, topical [^3 H]DMBA was applied to the skin, and the amount bound to DNA was determined 12 hours later as described in Table 4.

[5] = Anti-obesity test (body weight, food consumption); type: in vivo, mouse (male A/J); conditions: for mean weekly weight ± S.D.: 0.36% of diet, n = 5
Description: Male A/J mice (5 weeks old) were obtained from the Jackson Laboratory and were housed in polycarbonate cages (5 mice/cage) in animal quarters maintained at 24°±1° C. with 12 hours of light and 12 hours of darkness each day. One week after arrival, the mice were placed on a chow diet containing varying concentrations of DHEA or other steroid. Animals were weighed weekly; food consumption was determined weekly by subtracting the amount of food remaining in the cage from the amount added.
Male A/J (5 weeks old) were obtained from the Jackson Laboratory and were housed in polycarbonate cages (5 mice/cage) in animal quarters maintained at 24°±1° C. with 12 hours of light and 12 hours of darkness each day. One week after arrival, the mice were placed on a diet containing either DHEA, 19, or without steroid. Animals were weighed weekly. The concentration of DHEA or 19 used in the food was 0.54%.
Male A/J mice (5 weeks old) were obtained from the Jackson Laboratory and were housed in polycarbonate cages (5 mice/cage) in animal quarters maintained at 24°±1° C. with 12 hours of light and 12 hours of darkness each day. One week after arrival, the mice were placed on a show diet containing DHEA, 16, or 21 at 0.36%. Animals were weighed weekly.

[6] = test system: seminal vesicles plus prostate glands; test: Androgenic and anti-androgenic activity (seminal vesicle plus prostate weight); type: in vivo, mouse (male A/J); conditions: 0.36% of diet; 4 weeks; n = 5
Description: Male A/J mice (5 weeks old) were obtained from the Jackson Laboratory and were housed in polycarbonate cages (5 mice/cage) in animal quarters maintained at 24°±1° C. with 12 hours of light and 12 hours of darkness each day. One week after arrival, mice were placed on a chow diet containing either 0.18% or 0.09% 16 or without steroid. Mice were weighed weekly. After 4 weeks, the mice were killed, and the seminal vesicles plus prostate glands were dissected out and weighed.
as §1

rat uterus [7] = test: Estrogenic and anti-estrogenic activity (uterine weight, s.c., CD rats); type: in vivo, rat (female CD); conditions: 60 mg/kg s.c.; 3 days; Tables 16 and 17
Description: Female CD rats, 26-27 days old, were used. Rats were injected subcutaneously for 3 days with either DHEA or 16 in propylene glycol. Control rats received propylene glycol alone. The rats were killed on the 4th day and the uteri were removed and weighed.
Female CD rats, 26-27 days old, were injected subcutaneously for 3 days with one of the compounds of the present invention at 60 mg/kg in propylene glycol. Controls received propylene glycol alone. On the 4th day the rats were killed and the uteri were dissected out and weighed.

rat uterus [8] = test: Uterotrophic test for estrogenic activity, oral; type: in vivo; conditions: 14 μg/kg oral; 3 days; n = 6
Text: Uterotrophic Test for Estrogenic Activity. Compound 16 vs. DHEA and Estradiol-benzoate. Compounds Given by Oral Administration.
Twenty-two day old rats were obtained from Charles River Laboratories. Animals were used at 29 days of age. Test steroids were suspended by homogenization in sesame oil. Rats were orally intubated at 1-2 P.M. for 3 days with a test steroid in sesame oil or with sesame oil alone (control). On the 4th day the animals were killed and the uteri were removed and weighed.

[9] = test system: (3H) DMBA binding to skin DNA; test: [3H]DMBA binding to mouse skin DNA, topical steroid; type: in vivo, mouse (A/J); conditions: topical; A/J mouse
Text: Skin tumors can be induced in the mouse either by weekly application of a carcinogen such as […] (DMBA), or alternatively,by a single sub-threshold dose of the carcinogen followed by twice weekly applications of the tumor promoter tetradecanoylphorbol-13-acetate (TPA). In order to exert its carcinogenic effect, DMBA must be metabolized by an NADPH-dependent mixed-function oxidase to chemically reactive intermediates which bind covalently to DNA and produce mutations leading to malignant transformation. […] This effect of DHEA very probably is a result of the inhibition of G6PDH and lowering of the intracellular pool of NADPH, which is a co-factor for the mixed-function oxidase activation of DMBA.
Binding of [^3 H]DMBA to mouse skin DNA was determined as described in Pashko, L. L., and Schwartz, A. G. (1983), Effect of food restriction, dehydroepiandrosterone, or obesity on the binding of ^3 H-7,12-dimethylbenz(a)-anthracene to mouse skin DNA, J. Gerontol., 38, 8-12. Values are mean±SD for 3 individual determinations, with pooled tissue from 2 mice used for each determination. DHEA or testosterone (400 ug in 0.2 ml acetone) was applied to the skin one hour before [^3 H]DMBA. The mean weight of the food restricted mice was 18.5±1.0 gm, n=6, of the ad libitum fed, 27.4±1.0 gm, n=6, of the ad libitum fed treated with DHEA, 28.2±0.9 gm, n=6, and of the ad libitum fed treated with testosterone, 28.3±0.9 gm, n=6, following two weeks of feeding. The average food consumed was, in gm/mouse/day, 2.2, 3.8, 3.8 and 4.0 for the food restricted, ad libitum fed, ad libitum fed plus DHEA, and ad libitum fed plus testosterone groups, respectively.

With `C[C@]12CCC(Cl)CC1=CC[C@@H]1[C@@H]2CC[C@]2(C)C(=O)CC[C@@H]12` (stereo partly drawn) [3 chloro-5-androstene-17-one] the “estrogenic, anti-estrogenic, androgenic, anti-androgenic activity (in words)” value [1] was “without any demonstrable estrogenic, androgenic, anti-androgenic or anti-estrogenic activity”.

With `C[C@H]1CC[C@@]2(C)C(=CC[C@@H]3[C@@H]2CC[C@]2(C)C(=O)[C@H](F)C[C@@H]32)C1` [Compound 20] the “TPA stimulation in 3H-thymidine incorporation (in words)” value ([2]; single administration) was “to a degree comparable to that produced by food restriction at doses well below 400 mg/kg”, the inhibition at 1 µM [3] was 55% and the inhibition at 10 µM [3] was 46%. For the same molecule, the “SPECIFIC ACTIVITY ([3H]DMBA bound to skin DNA)” value ([4]; 100 mg/kg p.o.) was 48.4 ± 2.6 cpm/ug DNA, the “SPECIFIC ACTIVITY ([3H]DMBA bound to skin DNA)” value ([4]; 200 mg/kg p.o.) was 43.7 ± 1.5 cpm/ug DNA and the “anti-weight effect (in words)” value ([5]; 400 mg/kg repeated (DHEA), cancer preventive dosages (19, 20)) was “do not produce an anti-weight effect”.

In the case of `C[C@H]1CC[C@@]2(C)C(=CC[C@@H]3[C@@H]2CC[C@]2(C)C(=O)[C@H](C)C[C@@H]32)C1` [Compound 21], the “Mean Seminal Vesicle plus Prostate Weight ± S.D.” value [6] is reported as 5.1 ± 1.4 mg/100 gm body weight, the “estrogenic, anti-estrogenic, androgenic, anti-androgenic activity (in words)” value [1] is reported as “neither estrogenic, anti-estrogenic, androgenic, nor anti-androgenic activity” and the “G6PDH inhibition compared with DHEA (in words)” value [3] is reported as “more effective inhibitorsof G6PDH than is DHEA”. For the same molecule, the inhibition at 1 µM [3] was 36%, the inhibition at 10 µM [3] was 48% and the “Mean Uterine Weight ± S.D.” value (rat uterus [7]) was 1.76 ± 0.21 mg/100 gm body weight. The “mean weekly weight ± S.D.” value ([5]; week 0) was 22.7 ± 1.9 grams, the “mean weekly weight ± S.D.” value ([5]; week 1) was 20.1 ± 2.1 grams and the “mean weekly weight ± S.D.” value ([5]; week 2) was 19.9 ± 2.3 grams. The “mean weekly weight ± S.D.” value ([5]; week 3) was 22.2 ± 2.3 grams.

With `C[C@]12CC[C@@H]3c4ccc(OC(=O)c5ccccc5)cc4CC[C@H]3[C@@H]1CC[C@@H]2O` [Estradiol-benzoate, reference compound] the “Mean Uterine Weight” value (rat uterus [8]) was 244 ± 44 Mgs.

For `C[C@H]1CC[C@@]2(C)C(=CC[C@@H]3[C@@H]2CC[C@]2(C)C(=O)[C@H](F)C[C@@H]32)C1` [drawing 94], the “Inhibition of TPA Effect on Epidermis Following Oral Administration, relative to DHEA” value ([2]; Table 3, DHEA = 1×) was greater than 10 × and the “G6PDH Inhibition relative to DHEA” value ([3]; Table 3, DHEA = 1×) was 5-10 ×.

In the case of `C[C@]12CC[C@H]3[C@@H](CCC4=CC(=O)CC[C@@]43C)[C@@H]1CC[C@@H]2O` [testosterone], the “rate of binding of topically applied 3H-DMBA to skin DNA (in words)” value [9] is reported as “without inhibitory effect”.
